Measurements as given in PMC12198407, “Preclinical and first-in-human of purinostat mesylate, a novel selective HDAC I/IIb inhibitor, in relapsed/refractory multiple myeloma and lymphoma” (Signal Transduction and Targeted Therapy, 2025).
Like-named read-outs stand apart in the source and are kept apart here.

Assays:
[1] = Metabolite profiling in plasma, bile, urine, feces; format: in vivo, SD rats; conditions: for share of plasma AUC0-96h: [14C] 3 mg/100 µCi/kg i.v.; for amount in bile, % of administered dose: 0 to 72 hours; for amount in feces, % of administered dose / amount in urine, % of administered dose: 0 to 168 hours
Experimental: Following a single intravenous administration of [14C] Purinostat Mesylate at a dose of 3 mg/100 µCi/kg in male and female rats, a total of 14 metabolites were identified, in addition to the parent compound. These were designated as M382, M396, M474, M475, M490, M516, M517, M532, M546, M548, M558, M666, M708a, and M708b. Among these, M382 is an acetylated product of the parent drug after N-dealkylation, M396 is a carboxylic acid derivative of M382, M474 is a reduction product of the parent drug, M475 is a hydroxylated product derived from the amino conversion of M474, M490 is a mono-oxidation product of M474, M516 is an acetylated product of M474, M517 is a hydroxylated product derived from the amino conversion of M516, M532 is an acetylated product of the parent drug, M546 is a methylated product of M532, M548 is a dioxidation product of M516, M558 is a glucuronic acid conjugate of M382, M666 is a glucuronic acid conjugate of the parent drug, M708a is a mono-oxidation glucuronic acid conjugate of M516, and M708b is a glucuronic acid conjugate of M532.

89 kinases = assay: Kinase panel; format: biochemical; conditions: 1 μM
Experimental: The prototype drug Purinostat was tested for its inhibitory activity against 89 kinases that are strongly associated with tumors.

r/r DLBCL = conditions: cited from earlier work
[2] = target: human ether-à-go-go-related gene (hERG) channel (Homo sapiens, UniProt Q12809); assay: hERG inhibition; format: biochemical
[3] = test system: primary MM cells from relapsed patients A and B; assay: Cell apoptosis analysis, primary cells; format: cell-based, human; conditions: 5 nM, 48 h
Experimental: (§1) CD138^+, CD38^+, or CD20^+ primary cells were obtained from plasma cell leukemia patients and DLBCL patients who had relapsed after multiple drug therapies. These patient samples were sourced from West China Hospital and had been approved by the clinical ethics committee of West China Hospital of Sichuan University (Chengdu, China). The clinical information of these patients was summarized in Supplementary Table 2. The patient primary cells were cultured in 6-well plates at a density of 1×10^6 cells/mL, and treated with control, PM, panobinostat, Pom and DXM at indicated concentrations for 48 hours. CD138, CD38, and CD20 monoclonal antibodies, Annexin V-APC and 7AAD apoptosis detection kits were used following the manufacturer’s instructions. The apoptosis cells were analyzed by flow cytometry (Thermo, AttuneTMNxT).

[4] = test system: diffuse large B-cell lymphoma (DLBCL) cells from patient C; assay: Cell apoptosis analysis, primary cells; format: cell-based, human; conditions: 5 nM, 48 h
Experimental: as §1

r/r MM = conditions: cited from earlier work
[5] = test system: human double-hit lymphoma SUDHL-6; assay: SUDHL-6 subcutaneous tumor model; format: in vivo, NOD/SCID mice; conditions: positive control groups
HDAC I/IIb = test system: HDAC I/IIb; parameters: method as in PMID 27186676, PMID 31439580; conditions: range over isoforms; read-out: IC50 against HDAC I/IIb; cited from earlier work
HDAC IIa/IV = test system: HDAC IIa/IV; parameters: method as in PMID 27186676, PMID 31439580; conditions: range over isoforms; read-out: IC50 against HDAC IIa/IV; cited from earlier work
[6] = test system: human multiple myeloma RPMI-8226; format: in vivo
[7] = test system: BCR-ABL positive B-ALL PDX; assay: PDX model of clinical B-ALL patient; format: in vivo, NOD/SCID mice; conditions: positive control
Excerpt: A clinical sample from a B-ALL patient was obtained, characterized by BCR-ABL positivity and relapse after first-line treatment.

mouse B-cell lymphoma = assay: Ighmyc transgenic B-cell lymphoma model, survival; format: in vivo, mice; conditions: positive control groups
MM1S xenograft = MM1S xenograft mouse model; format: in vivo, NOD-SCID mice
KMS-11 = assay: Cell viability CCK8; format: cell-based; conditions: Homo sapiens; KMS-11, 72 h; no unit in table; read-out: Antiproliferative activity IC50
Experimental: (§2) PM, panobinostat, Pom and DXM were dissolved in DMSO and stored at -20°C freezer. Cells were seeded at a density of 1.0-3.0 × 10^4 cells/well/100 μL in 96-well plates. After overnight incubation, cells were treated with the drug-containing culture medium for 24, 48, or 72 hours, and cell viability was measured using CCK8 (Oriscience, Chengdu, China) at the indicated time points with Biotek Cytation 3 at a wavelength of 450 nm. The IC50 values were calculated using GraphPad Prism 9.4.1, and Calcusyn 2.0 software was employed to calculate the CI values.

Karpas299 = assay: Cell viability CCK8; format: cell-based; conditions: Homo sapiens, KARPAS-299; Karpas299, 72 h; no unit in table; read-out: Antiproliferative activity IC50
Experimental: as §2

Daudi = assay: Cell viability CCK8; format: cell-based; conditions: Homo sapiens, 72 h, no unit in table, read-out: Antiproliferative activity IC50
Experimental: as §2

NKYS = assay: Cell viability CCK8; format: cell-based; conditions: Homo sapiens, 72 h, no unit in table, read-out: Antiproliferative activity IC50
Experimental: as §2

OPM2 = assay: Cell viability CCK8; format: cell-based; conditions: Homo sapiens, OPM-2; OPM2, 72 h; no unit in table; read-out: Antiproliferative activity IC50
Experimental: as §2

MM1R = assay: Cell viability CCK8; format: cell-based; conditions: Homo sapiens, MM.1R, 72 h, no unit in table, read-out: Antiproliferative activity IC50
Experimental: as §2

MM1S = assay: Cell viability CCK8; format: cell-based; conditions: Homo sapiens, MM1.S, 72 h, no unit in table (b9: nM), read-out: Antiproliferative activity IC50
Experimental: as §2

TMD-8 = assay: Cell viability CCK8; format: cell-based; conditions: Homo sapiens, TMD8; TMD-8, 72 h; no unit in table; read-out: Antiproliferative activity IC50
Experimental: as §2

ARD = assay: Cell viability CCK8; format: cell-based; conditions: Homo sapiens, 72 h, no unit in table, read-out: Antiproliferative activity IC50
Experimental: as §2

RL = assay: Cell viability CCK8; format: cell-based; conditions: Homo sapiens, 72 h, no unit in table, read-out: Antiproliferative activity IC50
Experimental: as §2

AMO1 = assay: Cell viability CCK8; format: cell-based; conditions: Homo sapiens; AMO1, 72 h; no unit in table; read-out: Antiproliferative activity IC50
Experimental: as §2

RPMI-8226 = assay: Cell viability CCK8; format: cell-based; conditions: Homo sapiens; RPMI-8226, 72 h; no unit in table; read-out: Antiproliferative activity IC50
Experimental: as §2

Ramos = assay: Cell viability CCK8; format: cell-based; conditions: Homo sapiens, 72 h, no unit in table, read-out: Antiproliferative activity IC50
Experimental: as §2

SUDHL-4 = assay: Cell viability CCK8; format: cell-based; conditions: Homo sapiens, SU-DHL-4; SUDHL-4, 72 h; no unit in table; read-out: Antiproliferative activity IC50
Experimental: as §2

Raji = assay: Cell viability CCK8; format: cell-based; conditions: Homo sapiens, 72 h, no unit in table, read-out: Antiproliferative activity IC50
Experimental: as §2

RPMI-8226R = assay: Cell viability CCK8; format: cell-based; conditions: Homo sapiens, 72 h, no unit in table, read-out: Antiproliferative activity IC50
Experimental: as §2

[8] = positive controls and combinations (PM 5 mg/kg in combinations)

human ether-à-go-go-related gene (hERG) channel, sequence (Q12809 whole entry): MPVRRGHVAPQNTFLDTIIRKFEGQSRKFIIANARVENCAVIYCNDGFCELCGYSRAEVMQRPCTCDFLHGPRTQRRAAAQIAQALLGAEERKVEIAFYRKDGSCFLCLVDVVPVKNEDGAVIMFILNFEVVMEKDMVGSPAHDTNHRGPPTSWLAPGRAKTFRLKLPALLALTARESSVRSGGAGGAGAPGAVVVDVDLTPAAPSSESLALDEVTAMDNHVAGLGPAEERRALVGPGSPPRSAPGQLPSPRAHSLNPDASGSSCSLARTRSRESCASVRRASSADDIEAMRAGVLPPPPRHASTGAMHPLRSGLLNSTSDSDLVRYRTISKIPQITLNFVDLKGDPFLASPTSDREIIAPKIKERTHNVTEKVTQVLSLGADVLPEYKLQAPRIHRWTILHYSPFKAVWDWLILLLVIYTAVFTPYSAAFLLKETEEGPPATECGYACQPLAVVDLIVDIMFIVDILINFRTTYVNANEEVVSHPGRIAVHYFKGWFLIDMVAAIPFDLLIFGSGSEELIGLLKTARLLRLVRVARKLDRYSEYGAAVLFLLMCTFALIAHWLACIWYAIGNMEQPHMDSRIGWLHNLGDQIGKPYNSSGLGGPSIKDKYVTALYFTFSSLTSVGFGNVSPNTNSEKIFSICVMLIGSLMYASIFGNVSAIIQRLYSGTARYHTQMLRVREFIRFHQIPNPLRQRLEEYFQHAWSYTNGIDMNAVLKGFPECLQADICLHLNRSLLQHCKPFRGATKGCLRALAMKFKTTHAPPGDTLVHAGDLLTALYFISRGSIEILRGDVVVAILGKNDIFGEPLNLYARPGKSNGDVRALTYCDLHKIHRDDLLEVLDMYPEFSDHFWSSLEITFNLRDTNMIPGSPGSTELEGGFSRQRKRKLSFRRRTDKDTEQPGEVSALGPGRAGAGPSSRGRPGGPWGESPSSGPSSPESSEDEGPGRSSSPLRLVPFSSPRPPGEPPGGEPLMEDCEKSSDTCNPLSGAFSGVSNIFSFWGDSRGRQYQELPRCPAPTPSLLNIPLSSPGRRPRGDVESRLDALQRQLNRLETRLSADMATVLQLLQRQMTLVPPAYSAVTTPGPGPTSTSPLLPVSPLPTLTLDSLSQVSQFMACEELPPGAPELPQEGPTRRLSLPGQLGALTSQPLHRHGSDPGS

CN(Cc1nc2c(N3CCOCC3)nc(-c3ccc(N)cc3)nc2n1C)c1ncc(C(N)=O)cn1 [M474]
share of plasma AUC0-96h ([1]; female rats): 13.75%
amount in bile, % of administered dose ([1]; females): 1.16% to 3.30
amount in feces, % of administered dose ([1]; females): 0.79% to 5.53
amount in urine, % of administered dose ([1]; females): 0.43% to 0.87
share of plasma AUC0-96h ([1]; male rats): 13.79%
amount in bile, % of administered dose ([1]; males): 0.97% to 4.38
amount in feces, % of administered dose ([1]; males): 1.27% to 6.00
amount in urine, % of administered dose ([1]; males): 1.02% to 1.92

CN(Cc1nc2c(N3CCOCC3)nc(-c3ccc(N)cc3)nc2n1C)c1ncc(C(=O)O)cn1 [M475]
share of plasma AUC0-96h ([1]; female rats): 4.71% to 9.05
share of plasma AUC0-96h ([1]; male rats): 4.85% to 6.67

CC(=O)Nc1ccc(-c2nc(N3CCOCC3)c3nc(CN(C)c4ncc(C(N)=O)cn4)n(C)c3n2)cc1 [M516]
share of plasma AUC0-96h ([1]; female rats): 15.61%
amount in bile, % of administered dose ([1]; females): 5.77% to 7.49
amount in feces, % of administered dose ([1]; females): 30.10%
amount in urine, % of administered dose ([1]; females): 2.35% to 2.49
share of plasma AUC0-96h ([1]; male rats): 17.42%
amount in bile, % of administered dose ([1]; males): 4.75% to 8.74
amount in feces, % of administered dose ([1]; males): 27.70%
amount in urine, % of administered dose ([1]; males): 0.88% to 3.01

CC(=O)Nc1ccc(-c2nc(N3CCOCC3)c3nc(CN(C)c4ncc(C(=O)O)cn4)n(C)c3n2)cc1 [M517]
amount in bile, % of administered dose ([1]; females): 1.16% to 3.30
amount in feces, % of administered dose ([1]; females): 0.79% to 5.53
amount in bile, % of administered dose ([1]; males): 0.97% to 4.38
amount in feces, % of administered dose ([1]; males): 1.27% to 6.00

CC(=O)Nc1ccc(-c2nc(N3CCOCC3)c3nc(CN(C)c4ncc(C(=O)NO)cn4)n(C)c3n2)cc1 [M532]
share of plasma AUC0-96h ([1]; female rats): 4.71% to 9.05
amount in urine, % of administered dose ([1]; females): 0.43% to 0.87
share of plasma AUC0-96h ([1]; male rats): 4.85% to 6.67
amount in urine, % of administered dose ([1]; males): 1.02% to 1.92

CONC(=O)c1cnc(N(C)Cc2nc3c(N4CCOCC4)nc(-c4ccc(NC(C)=O)cc4)nc3n2C)nc1 [M546]
share of plasma AUC0-96h ([1]; female rats): 4.71% to 9.05
amount in bile, % of administered dose ([1]; females): 1.16% to 3.30
amount in feces, % of administered dose ([1]; females): 0.79% to 5.53
share of plasma AUC0-96h ([1]; male rats): 4.85% to 6.67
amount in bile, % of administered dose ([1]; males): 0.97% to 4.38
amount in feces, % of administered dose ([1]; males): 1.27% to 6.00

CN(Cc1nc2c(N3CCOCC3)nc(-c3ccc(N)cc3)nc2n1C)c1ncc(C(=O)NO)cn1 [Purinostat]
inhibitory activity against 89 kinases (89 kinases): no significant inhibitory activity

O=C(/C=C/c1cccc(S(=O)(=O)Nc2ccccc2)c1)NO [belinostat]
ORR in r/r DLBCL (r/r DLBCL; SWOG S0520): 10.5%

Cc1[nH]c2ccccc2c1CCNCc1ccc(/C=C/C(=O)NO)cc1 [panobinostat, reference compound]
IC50 [2]: 3500 nM
apoptosis ([3]; patient A): 54.5%
apoptosis ([3]; patient B): 40.1%
apoptosis [4]: 20.49%
response, monotherapy in r/r MM (r/r MM; phase II): 1 PR and 1 MR in 38 patients
T/C [5]: 92.55±13.13%
tumor inhibition rate [5]: 12.92%
IC50 (HDAC I/IIb): 2.1 to 277 nM
IC50 (HDAC IIa/IV): 2.7 to 531 nM
T/C [6, 8]: 35.1%
tumor inhibition rate [6, 8]: 59.79%
median survival time ([6]; satellite groups, PM 5 mg/kg alone or combined, control regimens): 52.5 days
median survival time [7]: 17 days
median survival time (mouse B-cell lymphoma): 20 days
tumor inhibition rate (MM1S xenograft; 10 mg/kg i.v. three times a week): 49.37%
relative tumor growth rate T/C (MM1S xenograft; positive control groups): 45.1%
tumor inhibition rate (MM1S xenograft; positive control groups, regimens per Table S9): 49.37%
median survival time (MM1S xenograft; satellite group, positive control): 26.5 days
IC50 (KMS-11): 7.94 ± 0.59 nM
IC50 (Karpas299): 4.03 ± 0.2 nM
IC50 (Daudi): 6.99 ± 3.9 nM
IC50 (NKYS): 4.81 ± 0.14 nM
IC50 (OPM2): 4.4 ± 0.27 nM
IC50 (MM1R): 0.87 ± 0.01 nM
IC50 (MM1S): 2.87 ± 0.12 nM
IC50 (TMD-8): 9.12 ± 0.25 nM
IC50 (ARD): 1.82 ± 0.16 nM
IC50 (RL): 6.43 ± 0.45 nM
IC50 (AMO1): 3.45 ± 0.5 nM
IC50 (RPMI-8226): 9.3 ± 0.55 nM
IC50 (Ramos): 5 ± 0.53 nM
IC50 (SUDHL-4): 6.72 ± 0.49 nM
IC50 (Raji): 5.48 ± 4.81 nM
IC50 (RPMI-8226R): 5.56 ± 0.49 nM

C/C=C1\NC(=O)[C@H]2CSSCC/C=C/[C@H](CC(=O)N[C@H](C(C)C)C(=O)N2)OC(=O)[C@H](C(C)C)NC1=O [romidepsin]
response, monotherapy in r/r MM (r/r MM; phase II): 4/12 patients SD

O=C(CCCCCCC(=O)Nc1ccccc1)NO [vorinostat]
ORR in r/r DLBCL (r/r DLBCL): 6%
response, monotherapy in r/r MM (r/r MM; phase I): 1 MR in 10 patients
